Reference: ChEMBL document CHEMBL3507680, “University of Dundee, Gates Library screen for HepG2 cell viability”

Assay: Human HepG2 cell viability assay in 384 well format
Assay type: toxicity, cell-based
Design: dose 125 nL, time 70.5 hour; cytotoxicity at 70.5 h: concentration not given beside the values
Details: HepG2 cells, read-out: Inhibition

Row | SMILES | cytotoxicity at 70.5 h [%]
1 | CC(=O)c1ccc(N2CCC(CO)(CCOc3ccccc3)CC2)nc1 | -11
2 | Cc1ccc(C(=O)Nc2nnc(CC(C)C)s2)c(-n2cnnn2)c1C | 29.7
3 | Cc1cccc(N(CCC(N)=O)CC(=O)Nc2ccccc2)c1 | 0.933
4 | c1ccc(-c2nc(CN3CCOC(Cn4cccn4)C3)no2)cc1 (stereo unspecified) | 2.47
5 | O=C(Cc1ccccc1)NCCNCc1cccc(O)c1 | 36.6
6 | CCCC1CCCN(C(=O)Nc2cccnc2OC)CC1 (stereo unspecified) | 19.4
7 | NC(=O)CN1CCC(NC2CSCCc3ccccc32)CC1 (stereo unspecified) | 5.08
8 | CN(CC(=O)c1ccc2[nH]c(=O)[nH]c2c1)Cc1ccc2c(c1)OCO2 | -3.13
9 | CC1=C[C@@H](CN2CCC(O)CC2)[C@H](C(C)C)C[C@H]1Cc1nnc(C)o1 | -4.6
10 | CCN(Cc1noc(C)n1)C(=O)CCn1c(C)cc2ccccc21 | -6.29
11 | COc1cc(N2C[C@@H]3COC[C@]3(COc3ccccn3)C2)ncn1 | -11.5
12 | Cc1ccccc1OCC(=O)N1CCCC(CNS(C)(=O)=O)C1 (stereo unspecified) | -5.65
13 | CCn1c(Cn2cccn2)nnc1C1CCN(Cc2ccc(C)o2)CC1 | 19.3
14 | CC(C)CNC(=O)N1C[C@H]2C[C@H](C(=O)NCc3ccccc3)[C@@H](C1)O2 | 13.9
15 | CC(=O)N1CCN(C(=O)CCOc2ccc(C(C)C)cc2)CC1 | -3.31
16 | CCCNC(=O)[C@@H]1CCCN1[C@@H](C(=O)NC)C1CC1 | -11.8
17 | Cc1cc(N2CCN(C(=O)c3cnn(C(C)C)c3)CC2)nc(N)n1 | -4.23
18 | O=C(c1ccnnc1)N1CCN2C[C@H](Oc3cccnc3)C[C@H]2C1 | -0.791
19 | Cc1nc(CN2C(=O)C[C@@H]3[C@@H]2CCN3S(C)(=O)=O)cs1 | -4.41
20 | COCCN1CC[C@H]2OCC[C@@H](C(=O)Nc3cccnc3)[C@@H]2C1 | 53
21 | Cc1noc(C)c1C(=O)N1Cc2ncn(C)c2C(COCC(C)C)C1 (stereo unspecified) | -7
22 | O=C1NC2(CCN(c3ncccn3)CC2)CC1c1cccnc1 (stereo unspecified) | -7.58
23 | Cc1noc(C)c1CN1CCN(Cc2cccnc2)c2ncccc2C1 | -6.13

Row | SMILES | cytotoxicity at 70.5 h [%]
24 | COc1cccc(C2(C(=O)NC3CCc4nccn4C3)CCCC2)c1 (stereo unspecified) | 10.9
25 | CC(C)(C)c1ncc(C(=O)NCCNC(=O)c2cccs2)s1 | 12.5
26 | COc1cc([C@@H]2N[C@H](c3nccs3)Cc3ccsc32)cc(OC)c1OC | -0.55
27 | CCN(Cc1nc2c(cnn2C)c(=O)[nH]1)c1ccccc1C | -11.2
28 | CN1CCC2(CC1)C(=O)N(CC1CC1)c1ccccc12 | -9.7
29 | COc1ncc(CN2CCOC(C)(C(=O)N3CCOCC3)C2)cn1 (stereo unspecified) | -4.39
30 | CCNC(=O)N1CCC(NC(=O)NCCc2cccc(C)c2)C1 (stereo unspecified) | 4.49
31 | CCCn1[nH]cc/c1=N\C(=O)CN1CCCC1Cn1nc(C)nc1C (stereo unspecified) | -1.59
32 | Cc1cc(SC(C)(C)C)ccc1NCC(=O)NC(N)=O | -9.41
33 | O=C(Cc1ccc(F)cc1)N1CCn2cc(Cn3cncn3)nc2C1 | -9.64
34 | Cc1noc(-c2ccc(-n3ncc(C(=O)O)c3C)nc2)n1 | -5.29
35 | COCc1ncc(CN2CC[C@@](C)(O)[C@@H](Cc3ccccc3)C2)cn1 | -1.9
36 | CN(Cc1nnc2n1CCC2)C(=O)NCCc1ccc2c(c1)OCO2 | -11.6
37 | O=C(C1CC=CC1)N1CC[C@@H]2O[C@H](COCC3CCOCC3)CC[C@@H]21 | -6.77
38 | Cn1ncc2c(N3CCN4CCCCC4C3)nc(C3CCCC3)nc21 (stereo unspecified) | -0.0598
39 | Cc1noc(C)c1CN(C)C(=O)NC1CCOCC1 | 21
40 | CC(C)C(NC(=O)c1nc(N2CCOCC2)ncc1Cl)c1cccs1 (stereo unspecified) | -9.67
41 | CCN(CC)c1ncc(CNC2CCc3nc(C(C)C)nn3C2)s1 (stereo unspecified) | -5.99
42 | CN(C)Cc1cnc2n1CCN(Cc1ccsc1)CC2 | -2.43
43 | O=C(CCn1cc(Cl)cn1)N1CCCC(O)(CO)CC1 (stereo unspecified) | -4.26
44 | Cn1ncc2c1C(COCC1CC1)CN(c1ncc(F)cn1)C2 (stereo unspecified) | -4.28
45 | Cc1cnc(C(=O)N2CC[C@H]3[C@@H]2CCC(=O)N3c2cccnc2)cn1 | -14.6
46 | O=C(N1CCCC(n2cncn2)C1)C1(c2ccc(Cl)cc2)CCC1 (stereo unspecified) | -7.28

Row | SMILES | cytotoxicity at 70.5 h [%]
47 | Cc1nc(-c2ccco2)ccc1C(=O)N1CCn2c(C)nnc2C1 | -17.1
48 | Cc1ccsc1CNC(=O)Nc1ccn(CCN2CCOCC2)n1 | 14.8
49 | CCCc1noc(CN2CCCC2c2c(C)nn(C)c2OC)n1 (stereo unspecified) | -7.09
50 | COC(=O)CNC(=O)c1scnc1C | -1.16
51 | CSCC[C@H](NC(=O)Cn1ccc2c(Br)cccc21)C(=O)O | -21.8
52 | COCC(=O)N1CCC2(CC1)CN(c1ncccn1)CCO2 | -10.1
53 | COCC(C)N1CCc2onc(-c3ccc(C(F)(F)F)cc3)c2C1 (stereo unspecified) | -7.25
54 | Cc1cc2cc(C(=O)N[C@@H]3CC[C@@H](N4CCNC(=O)C4)[C@@H]3O)ccc2o1 | -7.85
55 | Cc1cc(N(C)CCn2ccnc2C)n2nccc2n1 | -11.6
56 | Cc1ccc(NC(C)C(=O)N(C)Cc2cccc(F)c2)cc1C(N)=O (stereo unspecified) | -4.3
57 | O=C(CCCOCc1ccccc1)N1CCCC1c1ccccn1 (stereo unspecified) | -12.6
58 | O=C(CSCc1ccccn1)N(Cc1ccsc1)C1CC1 | -2.85
59 | CN(C)Cc1cnc2n1CCN(C(=O)C1CC=CC1)CC2 | -12.7
60 | CS(=O)(=O)N1CCO[C@@H]2CN(C(=O)c3ccnnc3)C[C@@H]2C1 | -2.42
61 | CCOCc1nnc2n1CCN(Cc1c(C)noc1C)CC2 | 16.5
62 | O=C1CCOC[C@]2(CN(Cc3ccccc3)C[C@H]2c2cccc(F)c2)N1 | -2.96
63 | O=C(CC1CC1)N1C[C@@H](O)[C@H](N2CCN(c3ccccc3)CC2)C1 | 22.4
64 | CC(=O)N1CCCC1c1cncc(Oc2ccc(F)cc2)n1 (stereo unspecified) | -3.89
65 | COCCN1CCC(Nc2c(F)cc(C#N)cc2F)CC1 | -14.5
66 | COc1nc2c(cc1C(=O)N1C[C@H](N)C[C@H]1C(=O)NC(C)C)CCC2 | -4.1
67 | CN(Cc1cccc(F)c1)S(=O)(=O)N1CCOCC1 | -3.2
68 | CC(NC(=O)CCn1cccn1)c1ccc2c(c1)OCCO2 (stereo unspecified) | 14.2
69 | CC(C(=O)NCC(C)(C)c1ccc(Br)cc1)n1cncn1 (stereo unspecified) | -12.2

Row | SMILES | cytotoxicity at 70.5 h [%]
70 | O=C(Nc1cccnc1N1CCSCC1)c1ccc2c(c1)CCO2 | 53.2
71 | CC(=O)N[C@@H]1Cc2ccccc2[C@H]1Nc1ccncn1 | -5.99
72 | COc1ccc2nc(CCNC(=O)c3cc(CC(C)C)no3)[nH]c2c1 | -15.4
73 | Clc1ccc(C(CNCc2cccnc2)n2cccn2)cc1 (stereo unspecified) | 24.3
74 | Cc1nc(CN2CCCC(CCc3ccccc3F)C2)c[nH]1 (stereo unspecified) | 1.04
75 | CC(C)(C)c1nnc(CN2CCN(S(C)(=O)=O)CC2)o1 | -2.04
76 | Cc1noc2ncc(C(=O)N3CCCC(n4ccnc4C)C3)cc12 (stereo unspecified) | -7.39
77 | COc1ccccc1CN1C(=O)O[C@@H]2CN(c3nccs3)C[C@@H]21 | 1.12
78 | Cc1ccc(S(=O)(=O)NCC2(O)CCOc3ccccc32)s1 (stereo unspecified) | -4.01
79 | CCc1cc(CNC(=O)N(C2CC2)C(C)c2ccco2)[nH]n1 (stereo unspecified) | -5.28
80 | COCCCN1Cc2cccc(NC(=O)c3ccccc3Cl)c2C1 | 12.9
81 | CN1CCN(C(=O)c2ccc(=O)n(C)c2)Cc2ccccc21 | -2.39
82 | COc1ccccc1-c1nc(C(=O)N(C)C)n2ccncc12 | -8.75
83 | COc1ccc(C(=O)N2C[C@@H](C(=O)O)[C@H](c3ccccc3)C2)c(O)c1 | -8.78
84 | CCSc1nnc(N2CCN(c3ccccc3)CC2)s1 | 0.78
85 | Cc1ccsc1CN(CCN(C)C)C(=O)C1=NNC(=O)CC1 | -9.85
86 | Cn1c(CN2CCOC(Cn3cncn3)C2)nc2ccccc21 (stereo unspecified) | 13.6
87 | COc1c(CNCc2ccccc2Cn2ccnc2)c(C)nn1C | -0.234
88 | COc1ccc2c(C)c(C(=O)NC3CCOCC3)oc2c1 | -0.242
89 | CC(C)c1cc(C(=O)N2CCC3(CCc4ccccc4C(=O)N3)C2)no1 (stereo unspecified) | 8.79
90 | CC(=O)N1CCC(NC(=O)CN2CCCc3c(F)ccc(C)c32)CC1 | -4.42
91 | COCC(=O)N1CCC(c2cc(-c3ccc(N)nc3)cc(C)n2)CC1 | 19.1
92 | CCCc1n[nH]c(C2CN(C(=O)CCc3cscn3)CCO2)n1 (stereo unspecified) | -1.57

Row | SMILES | cytotoxicity at 70.5 h [%]
93 | CC(C)CS(=O)(=O)N1C[C@H]2C[C@H](C(=O)N3CCN(C)CC3)[C@@H](C1)O2 | -3.23
94 | CN(C)c1nc2c(c(N3CCC(O)CC3)n1)CN(CC(C)(C)C)CC2 | -13.5
95 | O=C(CN1CCCCCCC1=O)NCc1ccccn1 | -1.3
96 | CC(C(=O)N1CCCC1)n1nc(-c2cccs2)cc(N)c1=O (stereo unspecified) | 5.25
97 | c1cncc(OC[C@]23COC[C@H]2CN(Cc2ccsc2)C3)c1 | -129
98 | Cc1cc(C(=O)NC2(c3cccc(F)c3)CCOCC2)no1 | -7.78
99 | CC(=O)N(c1ccc(C)cc1)c1nc(CN2CCCC(C)C2)cs1 (stereo unspecified) | 12.3
100 | O=C(CCc1ccccn1)N1CCCC(N2CCNC2=O)C1 (stereo unspecified) | -14.8
101 | CCc1nc2n(n1)CC(Nc1nc(C)cc(N(C)C)n1)CC2 (stereo unspecified) | -6.31
102 | COc1ccccc1C(=O)N1C[C@@H]2CCCCN(CC(N)=O)[C@@H]2C1 | -11.4
103 | Cc1cc(C)c(CNC(=O)NCc2ccncc2)c(=O)[nH]1 | -0.477
104 | Cc1noc(C)c1CN1CCCC1c1c(C)nn(C)c1Cl (stereo unspecified) | -2.34
105 | Cc1nnc(SCc2ccccn2)s1 | 1.03
106 | O=C(c1ccc2nncn2c1)N1CCCC1c1noc(C2CC2)n1 (stereo unspecified) | -7.81
107 | O=C(c1cc(-c2ccc(O)cc2)n[nH]1)N1CCCC1c1cccnc1 (stereo unspecified) | 0.428
108 | Cc1ccc(CNCC2CCc3nnc(C(C)C)n3C2)s1 (stereo unspecified) | -6.69
109 | O=C(Nc1ccccc1Oc1cccc(F)c1)C1CCS(=O)(=O)C1 (stereo unspecified) | -5.38
110 | CC(NC(=O)CCCc1ccc(Cl)cc1)c1n[nH]c(=O)[nH]1 (stereo unspecified) | -0.585
111 | NC(=O)NCC1CCCCN1C(=O)c1cccc(Cl)c1 (stereo unspecified) | -4.19
